In patent publication US10689395B2, “Tricyclic fused pyridin-2-one derivatives and their use as BRD4 inhibitors” (JUBILANT BIOSYS LIMITED, priority 2015, dated 2020):
Like-named read-outs stand apart in the source and are kept apart here. Blank lines part the entries; values can stand above or below the compound they belong to.

Experiments:
BRD4-BD1 = BRD4-BD1 (Homo sapiens (Human), UniProt O60885); test: BRD4 AlphaLISA (Perkin Elmer); type: binding; conditions: 5 nM BRD4-BD1, 12 nM biotinylated substrate, read-out: BRD4_BD1 IC50_μM
Method: BRD4 AlphaLISA (Perkin Elmer)
Compounds were diluted by step-down dilution method (final concentration of DMSO was 1%) and added to the wells of a 384 well opti plate at desired concentrations. 5 nM BDR4-BD1 enzyme (produced in-house) and 12 nM of biotinylated substrate were added to the wells, covered and incubated at room temperature (RT) for 1 h. At the end of 1 h 250 ng of GSH acceptor beads were added to the well and incubated for 1 h at RT; then 500 ng of streptavidin donor beads were added and incubated again for 1 h at RT. Plates were read in a Pherastar reader at 680 nm excitation and 570 nm emission. As detailed above, compounds were tested for both BRD4 enzyme inhibitory activities and IC50 were determined.

MV4-11 cells = test: Anticancer activity: Alamar Blue assay, 3-day proliferation; type: cell-based; conditions: AML cell line MV4-11, 72 h, read-out: MV4-11 EC50_μM
Method: Anticancer Activity: Alamar Blue Assay
The impact of the compounds on cancer cell proliferation was determined using the AML cell line MV4-11 (ATCC) in a 3-day proliferation assay. MV4-11 cells were maintained in RPMI supplemented with 10% FBS at 37° C., 5% CO2. For compound testing, MV4-11 cells were plated in a 96-well black bottom plate at a density of 15,000 cells/well in 100 μL culture media and incubated at 37° C. overnight. Compound dilution series were prepared in DMSO via a 3-fold serial dilution from 100 μM to 0.005 μM. The DMSO dilution series were then diluted with media, with the final compound concentrations added to the wells ranging from 10 μM to 0.0005 μM. […] The fluorescent readings from the Alamar Blue assay were normalized to the DMSO treated cells and analyzed using the GraphPad Prism software with sigmoidal curve fitting to obtain EC50.

Structure (SMILES): Cc1sc2c(c1C)C(c1ccc(Cl)cc1)OC(CCO)c1cc(=O)n(C)cc1-2 (racemic) [hh, ±4-(4-chlorophenyl)-6-(2-hydroxyethyl)-2,3,9-trimethyl-4,9-dihydrothieno[2′,3′:5,6]oxepino[4,3-c]pyridin-8(6H)-one]
IC50 (BRD4-BD1): 17 nM

Structure (SMILES): CCNC(=O)CC1N=C(c2ccc(Cl)cc2)c2c(sc(C)c2C)-c2cn(C)c(=O)cc21 (racemic) [b, ±2-(4-(4-chlorophenyl)-2,3,9-trimethyl-8-oxo-8,9-dihydro-6H-pyrido[4,3-c]thieno[2,3-e]azepin-6-yl)-N-ethylacetamide]
IC50 (BRD4-BD1): 2.2 nM | EC50 (MV4-11 cells; Homo sapiens): 10 nM

Structure (SMILES): CCNC(=O)CC1N=C(CC2CC2)c2c(sc(C)c2C)-c2cn(C)c(=O)cc21 (racemic) [r, ±2-(4-(cyclopropylmethyl)-2,3,9-trimethyl-8-oxo-8,9-dihydro-6H-pyrido[4,3-c]thieno[2,3-e]azepin-6-yl)-N-ethylacetamide]
IC50 (BRD4-BD1): 10 nM | EC50 (MV4-11 cells): 157 nM

Structure (SMILES): CCNC(=O)C[C@@H]1N=C(c2ccc(Cl)cc2)c2c(cnn2C)-c2cn(C)c(=O)cc21 [z, (S)-2-(4-(4-chlorophenyl)-3,9-dimethyl-8-oxo-3,6,8,9-tetrahydropyrazolo[3,4-c]pyrido[3,4-e]azepin-6-yl)-N-ethylacetamide]
IC50 (BRD4-BD1): 5 nM | EC50 (MV4-11 cells; Homo sapiens): 53 nM

Structure (SMILES): CCNC(=O)CC1N=C(c2ccc(Cl)cc2)c2cc(OC)ncc2-c2cn(C)c(=O)cc21 (racemic) [t, ±2-(7-(4-chlorophenyl)-9-methoxy-2-methyl-3-oxo-3,5-dihydro-2H-dipyrido[4,3-c:3′,4′-e]azepin-5-yl)-N-ethylacetamide]
IC50 (BRD4-BD1): 2 nM | EC50 (MV4-11 cells): 17 nM

Structure (SMILES): Cc1sc2c(c1C)C(c1ccc(Cl)cc1)=NC(CC(=O)Nc1ccc(O)cc1)c1cc(=O)n(C)cc1-2 (racemic) [h, ±2-(4-(4-chlorophenyl)-2,3,9-trimethyl-8-oxo-8,9-dihydro-6H-pyrido[4,3-c]thieno[2,3-e]azepin-6-yl)-N-(4-hydroxyphenyl)acetamide]
IC50 (BRD4-BD1): 33 nM

Structure (SMILES): CCOC(=O)CC1N=C(c2ccc(Cl)cc2)c2nc(C)sc2-c2cn(C)c(=O)cc21 (racemic) [l, ±Ethyl 2-(4-(4-chlorophenyl)-2,9-dimethyl-8-oxo-8,9-dihydro-6H-pyrido[4,3-c]thiazolo[5,4-e]azepin-6-yl)acetate]
IC50 (BRD4-BD1): 140 nM | EC50 (MV4-11 cells): 430 nM

Structure (SMILES): CCOC(=O)CC1N=C(c2ccc(Cl)cc2)c2c(cnn2C)-c2cn(C)c(=O)cc21 (racemic) [w, ±Ethyl 2-(4-(4-chlorophenyl)-3,9-dimethyl-8-oxo-3,6,8,9-tetrahydropyrazolo[3,4-c]pyrido[3,4-e]azepin-6-yl)acetate]
IC50 (BRD4-BD1): 10 nM | EC50 (MV4-11 cells): 26 nM

The next lines start with the values.

IC50 (BRD4-BD1): 2 nM | EC50 (MV4-11 cells; Homo sapiens): 7 nM
Structure (SMILES): Cc1sc2c(c1C)C(c1ccc(Cl)cc1)=NC(CC(N)=O)c1cc(=O)n(C)cc1-2 (racemic) [e, ±2-(4-(4-chlorophenyl)-2,3,9-trimethyl-8-oxo-8,9-dihydro-6H-pyrido[4,3-c]thieno[2,3-e]azepin-6-yl)acetamide]

IC50 (BRD4-BD1): 2 nM | EC50 (MV4-11 cells; Homo sapiens): 7 nM
Structure (SMILES): Cc1sc2c(c1C)C(c1ccc(Cl)cc1)OC(CC(N)=O)c1cc(=O)n(C)cc1-2 (racemic) [ee, ±2-(4-(4-chlorophenyl)-2,3,9-trimethyl-8-oxo-4,6,8,9-tetrahydrothieno[2′,3′:5,6]oxepino[4,3-c]pyridin-6-yl)acetamide]

IC50 (BRD4-BD1): 1 nM | EC50 (MV4-11 cells): 140 nM
Structure (SMILES): CCNC(=O)CC1N=C(c2ccc(Cl)cc2)c2nc(C)sc2-c2cn(C)c(=O)cc21 (racemic) [m, ±2-(4-(4-chlorophenyl)-2,9-dimethyl-8-oxo-8,9-dihydro-6H-pyrido[4,3-c]thiazolo[5,4-e]azepin-6-yl)-N-ethylacetamide]

IC50 (BRD4-BD1): 1 nM | EC50 (MV4-11 cells): < 0.5 nM
Structure (SMILES): CCNC(=O)CC1OC(c2ccc(Cl)cc2)c2c(cnn2C)-c2cn(C)c(=O)cc21 (racemic) [ll, ±2-(4-(4-chlorophenyl)-3,9-dimethyl-8-oxo-4,6,8,9-tetrahydro-3H-pyrazolo[4′,3′:5,6]oxepino[4,3-c]pyridin-6-yl)-N-ethylacetamide]

IC50 (BRD4-BD1): 1 nM | EC50 (MV4-11 cells): < 0.5 nM
Structure (SMILES): CCNC(=O)CC1OC(c2ccc(Cl)cc2)c2c(sc(C)c2C)-c2cn(C)c(=O)cc21 (racemic) [bb, ±2-(4-(4-chlorophenyl)-2,3,9-trimethyl-8-oxo-4,6,8,9-tetrahydrothieno[2′,3′:5,6]oxepino[4,3-c]pyridin-6-yl)-N-ethylacetamide]

IC50 (BRD4-BD1): < 0.5 nM | EC50 (MV4-11 cells; Homo sapiens): 25 nM
Structure (SMILES): CCNC(=O)CC1N=C(c2ccc(C#N)cc2)c2c(sc(C)c2C)-c2cn(C)c(=O)cc21 (stereo in doubt) [k, (R)-2-(4-(4-cyanophenyl)-2,3,9-trimethyl-8-oxo-8,9-dihydro-6H-pyrido[4,3-c]thieno[2,3-e]azepin-6-yl)-N-ethylacetamide]
